Measured values reported in patent publication US8268292B2, “Obovatol having anti-anxiety activity” (Korea Research Institute of Bioscience and Biotechnology, priority 2005, dated 2012).

Key:
Format in all cases: in vivo
[1] = test system: ICR mice; test: acute toxicity test on ICR mice; settings: oral 10, 100 and 1000 mg/kg, observed for 2 weeks
Procedure: (§1) The acute toxicity tests on ICR mice (mean body weight 25±5 g) and Sprague-Dawley rats (235±10 g, Biogenomics Co., Ltd.) were performed using the obovatol compound. Four groups consisting of 3 mice or rats was administrated orally with 10 mg/kg, 100 mg/kg and 1000 mg/kg of test sample or solvents (0.2 mL, […].) respectively and observed for 2 weeks.

[2] = test system: Sprague-Dawley rats; test: acute toxicity test on Sprague-Dawley rats; settings: oral 10, 100 and 1000 mg/kg, observed for 2 weeks
Procedure: as §1

[3] = test system: ICR male mice; test: elevated plus-maze model test
Procedure: Animals and Drugs: ICR male mice weighing from 20 g to 28 g (5 or 6 weeks) were purchased from Daehan Biolink Co., Ltd. (Korea) and housed for at least 7 days prior to the experiment under 12-h light/dark cycle (lights on at 7:00 am) in a temperature-controlled (22±2° C.) animal facility. Food and water were freely accessible. All mice were maintained in accordance with the National Institute of Toxicological Research on the Korea Food and Drug Administration guideline for the care and use of laboratory animals. Diazepam (ample type) was purchased from Dea-Won Pharmaceutical Co. (South Korea) and was orally administered 30 min prior to the experiment. Obovatol was kindly gifted from Korea Research Institute of Bioscience and Biotechnology and was orally administered 60 min prior to the experiment.
Treatment of Test Sample: obovatol prepared from Example 1 was dissolved in 0.1 ml of ethanol and diluted with 0.1% Tween-80 in order to administrate with an amount of 0.1 ml/10 g per weight of test animal. Various concentrations of test sample (obovatol), i.e., 0.2, 0.5 and 1 mg/kg were orally administrated at 1 hour prior to the experiment and […] of diazepam was peritoneally administrated into animal at 30 mins prior to the experiment.
To determine the anti-anxiety activity after administration of obovatol, elevated plus-maze model test was performed as follow in accordance with procedure cited in the literature (Dawson, G. R. et al., Trends in Pharmacological Sciences, 16, pp. 33-36, 1995).
Elevated plus-maze apparatus consists of two perpendicular open (30×5 cm) and two closed arms (30×5 cm) with 15 cm high walls, extending from the central platform (5×5 cm). […] All experimental sessions were recorded with a video camera mounted vertically above the maze. The activity on the open arm was evaluated as: 1) time spent on the open arms relative to the total time spent in the plus-maze, expressed as a percentage (100× time spent on open arm/total time in the plus-maze); 2) the number of entries into both open and closed arms, expressed as a percentage (100× open/total entries). […]

[4] = test system: ICR male mice; test: locomoter activity test; settings: oral 0.2, 0.5 and 1.0 mg/kg; dose dependent
Procedure: All the animals used in the test are prepared in the similar method according to Experimental Example 1.
To determine and re-confirm the anti-anxiety activity of obovatol, following locomoter activity test was performed as follow in accordance with the procedure cited in the literature (Kulkarni S. K. et al., Methods and Findings in Experimental and Clinical Pharmacology, 18, pp. 219-230, 1996).
All the animals were transferred to test cage (diameter: 20 cm, height: 18 cm) one hour prior to the administration of test samples, acclimated the environment for 10 mins and the locomoter activity was determined automatically at every 1 hour.

In the case of obovatol, the “treatment-related effects on mortality, clinical signs, body weight changes and gross findings” value [1] is reported as “no treatment-related effects”, the “treatment-related effects on mortality, clinical signs, body weight changes and gross findings” value [2] is reported as “no treatment-related effects” and the “anti-anxiety activity relative to diazepam” value ([3]; at the same doses of the drugs, elevated plus-maze, FIG. 3 and FIG. 4) is reported as “more potent anti-anxiety activity than diazepam”. The “percentage of time spent in the open arms” value ([3]; oral 0.2, 0.5 and 1.0 mg/kg, 60 min prior (P<0.05, P<0.05 and P<0.005)) was “significant increases”, the “percentage of entries into open arms” value ([3]; oral 0.2, 0.5 and 1.0 mg/kg, 60 min prior, dose dependent, compared with diazepam treated group (P<0.05, P<0.05 and P<0.005)) was “significantly increased” and the locomoter activity [4] was “significantly decreased”.
